PubChem BioAssay (NCI)
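Test compounds were applied to cells in 96-well plates for 48 hours at 5 doses. GI50: concentration for 50% inhibition of growth. At the TGI there is no net growth.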 Where a SMILES comes first, the peptide text is derived from it. The star is where a group is joined. Boc = CC(C)(C)OC(=O)*

What was measured:
Assay in all cases: inhibition of tumour cell growth, NCI panel, 48 h
HOP-62 NSCLC = tested on: HOP-62 NSCLC
SF-539 CNS = tested on: SF-539 CNS
OVCAR-5 ovarian = tested on: OVCAR-5 ovarian
UO-31 renal = tested on: UO-31 renal
UACC-257 melanoma = tested on: UACC-257 melanoma
T-47D breast = tested on: T-47D breast
SN12C renal = tested on: SN12C renal
SK-OV-3 ovarian = tested on: SK-OV-3 ovarian
SW-620 colon = tested on: SW-620 colon
786-0 renal = tested on: 786-0 renal
BT-549 breast = tested on: BT-549 breast

Cc1cc(=O)oc2c(CNC(Cc3ccccc3)C(=O)O)c(O)ccc12 (centres undefined)
TGI (HOP-62 NSCLC): > 100 µM | TGI (SF-539 CNS): > 100 µM | TGI (OVCAR-5 ovarian): > 100 µM | TGI (UO-31 renal): > 100 µM | TGI (UACC-257 melanoma): > 100 µM | TGI (T-47D breast): > 100 µM | TGI (SN12C renal): > 100 µM | TGI (SK-OV-3 ovarian): > 100 µM | TGI (SW-620 colon): > 100 µM | TGI (786-0 renal): > 100 µM

NC(=S)N/N=C\c1nccc2ccccc12
TGI (SF-539 CNS): 0.455 µM | GI50 (OVCAR-5 ovarian): 469 nM | TGI (OVCAR-5 ovarian): > 100 µM | TGI (UO-31 renal): 3.63 µM | TGI (UACC-257 melanoma): > 58.6 µM | TGI (T-47D breast): > 100 µM | TGI (SN12C renal): 0.779 µM | TGI (SK-OV-3 ovarian): 0.681 µM | TGI (SW-620 colon): > 100 µM | TGI (BT-549 breast): 13.9 µM

NC(N)=Nc1ccc(CC(N)C(=O)O)cc1 (centres undefined)
TGI (HOP-62 NSCLC): > 12.5 µM | TGI (OVCAR-5 ovarian): > 12.5 µM | TGI (UO-31 renal): > 12.5 µM | TGI (UACC-257 melanoma): > 12.5 µM | TGI (T-47D breast): > 12.5 µM | TGI (SN12C renal): > 12.5 µM | TGI (SK-OV-3 ovarian): > 12.5 µM | TGI (SW-620 colon): > 12.5 µM | TGI (BT-549 breast): > 12.5 µM | TGI (786-0 renal): > 12.5 µM

O=C1CC(c2ccccc2)n2cccc21 (centres undefined)
TGI (HOP-62 NSCLC): > 100 µM | TGI (SF-539 CNS): > 100 µM | TGI (OVCAR-5 ovarian): > 100 µM | TGI (UO-31 renal): > 100 µM | TGI (UACC-257 melanoma): > 100 µM | TGI (T-47D breast): > 100 µM | TGI (SN12C renal): > 100 µM | TGI (SK-OV-3 ovarian): > 100 µM | TGI (SW-620 colon): > 100 µM | TGI (786-0 renal): > 100 µM

COc1cc(/C=c2\sc3n(c2=O)C(c2ccc(Cl)cc2)C2=C(CCCC2C)N=3)cc(OC)c1OC (centres undefined)
TGI (HOP-62 NSCLC): > 100 µM | TGI (OVCAR-5 ovarian): > 100 µM | TGI (UO-31 renal): > 100 µM | TGI (UACC-257 melanoma): > 100 µM | TGI (SN12C renal): > 100 µM | TGI (SK-OV-3 ovarian): > 100 µM | TGI (SW-620 colon): > 100 µM | TGI (786-0 renal): > 100 µM

CC(C)/C(Cl)=N\OC(=O)Nc1cccc(Cl)c1
TGI (HOP-62 NSCLC): > 86.1 µM | TGI (SF-539 CNS): 36.8 µM | TGI (OVCAR-5 ovarian): 18.3 µM | TGI (UO-31 renal): 33.3 µM | TGI (UACC-257 melanoma): 26.8 µM | TGI (T-47D breast): 68.5 µM | TGI (SN12C renal): 32.4 µM | TGI (SK-OV-3 ovarian): > 58.2 µM | TGI (SW-620 colon): 9.83 µM | TGI (786-0 renal): 29.1 µM

CC(=O)C1CC[C@@H]2[C@H](CC[C@]3(C)[C@@H](O)CC[C@@H]23)[C@H]1C(=O)O (some centres undefined)
TGI (HOP-62 NSCLC): > 100 µM | TGI (SF-539 CNS): > 100 µM | TGI (OVCAR-5 ovarian): > 100 µM | TGI (UO-31 renal): > 100 µM | TGI (UACC-257 melanoma): > 100 µM | TGI (SK-OV-3 ovarian): > 100 µM | TGI (SW-620 colon): > 100 µM | TGI (BT-549 breast): > 100 µM

COC(=O)C(Cc1c[nH]c2ccccc12)NC(=O)C(Cc1c[nH]c2ccccc12)NC(=O)C(Cc1c[nH]c2ccccc12)NC(=O)C(Cc1c[nH]c2ccccc12)NC(=O)C(Cc1c[nH]c2ccccc12)NC(=O)C(Cc1c[nH]c2ccccc12)NC(=O)C(Cc1c[nH]c2ccccc12)NC(=O)C(Cc1c[nH]c2ccccc12)NC(=O)OC(C)(C)C (centres undefined) (Boc-WWWWWWWW-OMe; configuration not given here)
TGI (HOP-62 NSCLC): > 100 µM | TGI (OVCAR-5 ovarian): > 100 µM | TGI (UO-31 renal): > 100 µM | TGI (UACC-257 melanoma): > 100 µM | TGI (SN12C renal): > 100 µM | TGI (SW-620 colon): > 100 µM | TGI (BT-549 breast): > 100 µM | TGI (786-0 renal): > 100 µM

O=C1c2ccccc2C(=O)N1CC(O)COc1cccc2ccccc12 (centres undefined)
TGI (HOP-62 NSCLC): > 100 µM | TGI (OVCAR-5 ovarian): > 100 µM | TGI (UO-31 renal): > 100 µM | TGI (UACC-257 melanoma): > 100 µM | TGI (SK-OV-3 ovarian): > 100 µM | TGI (SW-620 colon): > 100 µM

C=C(C)[C@@H]1CCC2=C[C@H](OC2=O)[C@@]2(C)C[C@@H]2C2=CC(C)=C(O2)[C@H]1O
TGI (HOP-62 NSCLC): > 75 µM | TGI (SF-539 CNS): > 75 µM | TGI (OVCAR-5 ovarian): > 75 µM | TGI (UO-31 renal): > 75 µM | TGI (UACC-257 melanoma): > 75 µM | TGI (T-47D breast): > 75 µM | TGI (SN12C renal): > 75 µM | TGI (SK-OV-3 ovarian): > 75 µM | TGI (SW-620 colon): > 75 µM | TGI (786-0 renal): > 75 µM

COc1cc(Cc2nccc3cc(OC)c(OC)cc23)c(N=NN(C)C)cc1OC
TGI (HOP-62 NSCLC): > 100 µM | TGI (OVCAR-5 ovarian): 40.9 µM | TGI (UO-31 renal): 44.8 µM | TGI (UACC-257 melanoma): 44.9 µM | TGI (T-47D breast): 25.4 µM | TGI (SN12C renal): 41.3 µM | TGI (SK-OV-3 ovarian): 49.2 µM | TGI (SW-620 colon): 37.9 µM | TGI (BT-549 breast): 44 µM | TGI (786-0 renal): 18.6 µM

COC(=O)c1c2cccccc-2c(Cc2c3cccccc-3c(C(=O)OC)c2O)c1O
TGI (HOP-62 NSCLC): > 100 µM | TGI (SF-539 CNS): > 100 µM | TGI (OVCAR-5 ovarian): > 100 µM | TGI (UO-31 renal): > 100 µM | TGI (UACC-257 melanoma): > 100 µM | TGI (SN12C renal): > 100 µM | TGI (SK-OV-3 ovarian): > 100 µM | TGI (SW-620 colon): > 100 µM | TGI (786-0 renal): > 100 µM

COC(=O)C(CCSC)NC(=O)Cc1ccc(C(=O)c2ccccc2)cc1 (centres undefined)
TGI (HOP-62 NSCLC): > 100 µM | TGI (OVCAR-5 ovarian): > 100 µM | TGI (UO-31 renal): > 100 µM | TGI (UACC-257 melanoma): > 100 µM | TGI (T-47D breast): > 100 µM | TGI (SN12C renal): > 100 µM | TGI (SK-OV-3 ovarian): > 100 µM | TGI (SW-620 colon): > 100 µM | TGI (BT-549 breast): > 100 µM | TGI (786-0 renal): > 100 µM

C=C(Br)CNC(=O)CCC(=O)NCC(=C)Br
TGI (HOP-62 NSCLC): > 100 µM | TGI (SF-539 CNS): > 100 µM | TGI (OVCAR-5 ovarian): > 100 µM | TGI (UO-31 renal): > 100 µM | TGI (UACC-257 melanoma): > 100 µM | TGI (T-47D breast): > 100 µM | TGI (SN12C renal): > 100 µM | TGI (SK-OV-3 ovarian): > 100 µM | TGI (SW-620 colon): > 100 µM | TGI (786-0 renal): > 100 µM

N#C/C(N)=C(\C#N)NC(=O)C(=O)N/C(C#N)=C(\N)C#N
TGI (HOP-62 NSCLC): > 100 µM | TGI (SF-539 CNS): > 100 µM | TGI (OVCAR-5 ovarian): > 100 µM | TGI (UO-31 renal): > 100 µM | TGI (UACC-257 melanoma): > 100 µM | TGI (T-47D breast): > 100 µM | TGI (SN12C renal): > 100 µM | TGI (SW-620 colon): > 100 µM | TGI (BT-549 breast): > 100 µM | TGI (786-0 renal): > 100 µM

C=C1CCC([N+](=O)[O-])[C@](C)(N=O)CC[C@@H]2C1CC2(C)C (some centres undefined)
TGI (HOP-62 NSCLC): > 100 µM | TGI (OVCAR-5 ovarian): 36.1 µM | TGI (UO-31 renal): 31.7 µM | TGI (UACC-257 melanoma): 46.2 µM | TGI (SN12C renal): > 100 µM | TGI (SK-OV-3 ovarian): > 100 µM | TGI (SW-620 colon): 47.2 µM | TGI (BT-549 breast): 37.1 µM | TGI (786-0 renal): 42.6 µM

O=C1C(c2c(O)[nH]c3ccc(Br)cc23)=Nc2ccccc21
TGI (HOP-62 NSCLC): 32.6 µM | TGI (OVCAR-5 ovarian): 26 µM | TGI (UO-31 renal): 12.3 µM | TGI (UACC-257 melanoma): 57.3 µM | TGI (T-47D breast): 64.2 µM | TGI (SN12C renal): > 100 µM | TGI (SK-OV-3 ovarian): 40.9 µM | TGI (SW-620 colon): > 100 µM | TGI (BT-549 breast): 41 µM | TGI (786-0 renal): 5.75 µM

CCOC(=O)c1ccc(N=c2sc3ccccc3nc2Nc2ccc(C(=O)OCC)cc2)cc1
TGI (HOP-62 NSCLC): > 100 µM | TGI (SF-539 CNS): > 100 µM | TGI (OVCAR-5 ovarian): > 100 µM | TGI (UO-31 renal): > 100 µM | TGI (UACC-257 melanoma): > 100 µM | TGI (T-47D breast): > 100 µM | TGI (SN12C renal): > 100 µM | TGI (SK-OV-3 ovarian): > 100 µM | TGI (SW-620 colon): > 100 µM | TGI (786-0 renal): 64.8 µM

CC(=O)O[C@H]1C(=O)[C@@]2(C)C(C(OC(=O)c3ccccc3)C3[C@@H](O)C(OC(=O)[C@@H](O)[C@H](NC(=O)c4ccccc4)c4ccc(C(F)(F)F)cc4)C(C)=C1C3(C)C)[C@]1(OC(C)=O)CO[C@@H]1C[C@@H]2O (some centres undefined)
TGI (HOP-62 NSCLC): > 25 µM | TGI (SF-539 CNS): > 25 µM | TGI (OVCAR-5 ovarian): > 25 µM | TGI (UO-31 renal): > 25 µM | TGI (UACC-257 melanoma): > 25 µM | TGI (SN12C renal): > 25 µM | TGI (SK-OV-3 ovarian): > 25 µM | TGI (SW-620 colon): > 25 µM | TGI (786-0 renal): > 25 µM

COc1ccc(/C=C2\CCC(C)C3=C2N=c2s/c(=C/c4cccc(Br)c4)c(=O)n2C3c2ccc(OC)c(OC)c2)cc1OC (centres undefined)
TGI (HOP-62 NSCLC): > 100 µM | TGI (OVCAR-5 ovarian): > 100 µM | TGI (UACC-257 melanoma): > 100 µM | TGI (SN12C renal): > 100 µM | TGI (SK-OV-3 ovarian): > 100 µM | TGI (SW-620 colon): > 100 µM | TGI (786-0 renal): > 100 µM
